“And” between values parts separate entries of the source, which are not always exact repeats. Equal values may be shown once.
Assays:
[1] = tested on: Atopic Dermatitis; experiment: Clinical Study 2: randomized single blind comparison of N1 and Hydrocortisone 1% in atopic dermatitis, SASSAD severity score; type: in vivo, human
Excerpt: The patients taking part in the clinical studies were given free kits of the aerosol apparatus of the present invention and a set of instructions detailing method of use as follows: 1) Remove clothing of the area of application. 2) If the face needs to be treated, the eyes should be closed or masked (for babies or small children) 3) Hold the apparatus at a distance of 10 cm-20 cm approximately. 4) Press the apparatus's actuator to release the water-based particles. 5) Apply for a few seconds or as needed then leave the treated areas to dry untouched. Repeat as many times as needed until the symptoms ease. 6) In chronic cases and in order to speed the healing process, apply a daily regimen of four times per day, once before bedtime until symptoms reduce or disappear.
125 Patients took part in a comparative, randomized, single (observer) blind, controlled clinical study.
The scoring system used to evaluate the results of both groups is “Six area, six sign atopic dermatitis (SASSAD) severity score [Jones J B. Six area, six sign atopic dermatitis (SASSAD) severity score: A simple system for monitoring disease activity in atopic dermatitis. Br J Dermatol. 1996; 135 (Suppl 48): 25-30] […] The signs are: Dryness, lichenification, cracking, erythema, exudation and excoriation. the six areas of the body are head, neck, trunk, arms, hands, legs and feet. The severity of the lesions are assessed as 0, 1, 2 and 3 for no lesion, mild, moderate and severe lesions respectively for each sign in each body area resulting in a score of maximum 18 for each sign. The six signs were evaluated objectively by the investigating physicians. Itching being a subjective symptom was evaluated by the patient.
The atopic dermatitis diagnosis was based on [Hanifin J. M., Rajka G. Diagnostic Features of Atopic Dermatitis, Acta Derma (Stock) Suppl. 92:44-47, 1980].

[2] = tested on: Itching (Atopic Dermatitis); experiment: Clinical Study 2: itching by patient VAS in atopic dermatitis patients; type: in vivo, human
Excerpt: 125 Patients took part in a comparative, randomized, single (observer) blind, controlled clinical study. […] The age difference for both groups of males and females was statistically insignificant t=0.551, P=0.582 and t=1.307, P=0.194 respectively. […] The similar distribution allowed for a matching analysis with no statistical difference where Chi-square test=0.001, P=0.976. Due to the subjective nature of this symptom, all the patients were given VAS (Visual analogue scale graded 0=no itch to 10=severe itch) to complete at home twice daily, once in the morning and once in the evening, on the fifth, sixth and seventh day, after allowing for a washout period of four days. Table IX clarify the mean VAS score in both groups after treatment with their respective intervention. The N1 group has experienced a significant decline in their VAS score throughout the 5th, 6th and 7th days where paired t test for the decline in the 5th day=6.96, P=0.001 and for the 6th day=6.74, P=0.001 and for the 7th day=2.76, p=0.006.

[3] = Base score, listed as hydrocortisone
[4] = Week 1, listed as hydrocortisone

SMILES: C[C@]12CCC(=O)C=C1CC[C@@H]1[C@@H]2[C@@H](O)C[C@@]2(C)[C@H]1CC[C@]2(O)C(=O)CO [Hydrocortisone]
- Mean Cracking score ([1]; Base score): 1.17
- Mean Dryness score ([1]; Base score): 4.32
- Mean Erythema score ([1]; Base score): 3.6
- Mean Excoriation score ([1]; Base score): 2.7
- Mean Exudation score ([1]; Base score): 3.18
- Mean Lichenification score ([1]; Base score): 2.44
- Mean Erythema score [1, 3]: 3.6±2.5
- Mean Lichenification score [1, 3]: 2.44±1.7
- Mean Dryness score ([1]; Week 1): 2.9
- Mean Erythema score ([1]; Week 1): 2.9
- Mean Excoriation score ([1]; Week 1): 1.97
- Mean Exudation score ([1]; Week 1): 2.5
- Mean Lichenification score ([1]; Week 1): 1.55
- Mean Exudation score [1, 4]: 2.5±2.4
- Mean Lichenification score [1, 4]: 1.55±1.9
- Mean Dryness score ([1]; Week 2): 2.13
- Mean Erythema score ([1]; Week 2): 1.8
- Mean Excoriation score ([1]; Week 2): 1.6
- Mean Lichenification score ([1]; Week 2): .82
- Mean Lichenification score ([1]; Week 2, listed as hydrocortisone): 0.82±1.3
- group cleared of atopic dermatitis (SASSAD score of 0 or 1) ([1]; after Week One): 14%
- group cleared of Atopic dermatitis ([1]; after two weeks treatment, total): 11%
- patients cleared from atopic dermatitis (SASSAD score=0) ([1]; after week one): 9 patients
- patients cleared from atopic dermatitis (SASSAD score=0), percent of group ([1]; after week one): 3.81%
- Mean SASSAD score ([1]; at baseline, before treatment): 17.51±7.37 and 17.52 and 17.5
- Mean SASSAD score ([1]; at baseline, before treatment, listed as hydrocortisone): 17.52±7.37
- group cleared of atopic dermatitis (SASSAD score of 0 or 1) ([1]; at the end of Week Two): 6.3%
- Mean SASSAD score ([1]; end of week one): 12.82±8.34 and 12.52±8.34 and 12.82 and 12.5
- Mean SASSAD score ([1]; end of week two, patients who continued treatment): 8.4±6 and 8.4
- Mean SASSAD score ([1]; end of week two, patients who continued treatment, listed as hydrocortisone): 8.4±6
- itch free duration, mean ([2]; 3 day self-monitoring period): 1.76 ± 1.21 h
- Mean itch VAS (0=no itch to 10=severe itch) ([2]; Day 5 Evening): 7.69
- Mean itch VAS (0=no itch to 10=severe itch) ([2]; Day 5 Morning): 8.01
- Mean itch VAS (0=no itch to 10=severe itch) ([2]; Day 5 Morning, listed as hydrocortisone): 8.01±1.65
- Mean itch VAS (0=no itch to 10=severe itch) ([2]; Day 6 Evening): 7.06
- Mean itch VAS (0=no itch to 10=severe itch) ([2]; Day 6 Morning): 7.17
- Mean itch VAS (0=no itch to 10=severe itch) ([2]; Day 7 Evening): 6.58
- Mean itch VAS (0=no itch to 10=severe itch) ([2]; Day 7 Evening, listed as hydrocortisone): 6.58±1.97
- Mean itch VAS (0=no itch to 10=severe itch) ([2]; Day 7 Morning): 6.63
- Mean itch VAS (0=no itch to 10=severe itch) ([2]; Day 7 Morning, listed as hydrocortisone): 6.63±1.93
